According to patent US7005274B1, “Methods and compositions for diagnosing and treating arthritic disorders and regulating bone mass” (MIGENIX Corp., priority 1999, dated 2006):

Assays:
TC28 cells = assay: Intracellular ATP, luciferase assay; type: cell-based; conditions: 10 ng/ml TGFβ, 0.025 mM antimycin A, 0.02 μg/ml oligomycin; mean ± SD
Procedure: (§1) Levels of total cellular ATP were measured by a modification of luciferase-based assays known in the art (Lin et al., Anal. Biochem. 24:531–540, 1968); related assays and modifications may alternatively be used (see, e.g., Turman et al., In Vitro Cell. Dev. Biol. Anim. 32:1–4, 1996, for an assay format that uses a fluorescent plate reader). In brief, 2×10^6 cells were washed and pelleted in 10 ml phosphate-buffered saline (PBS). The cell pellets were snap-frozen in a dry ice/ethanol bath, after which […] of 0.2 M HCl was added, followed by 0.3 ml of 2 mM glycine (pH 9.0). Samples were heated at 100° C. for five minutes, then placed on ice. A standard curve was developed using 0 to 500 pmol of purified ATP (disodium salt). One hundred (100) μl of the cell extract, or purified ATP standard, was added to an equal volume of the ATP assay mixture (containing MgSO4, DTT, EDTA, luciferase and luciferin, all from the Sigma Bioluminescence Assay Kit and all diluted 1:25). Following a 5 second incubation and 15 second integration, samples were read on a TD-20/20 Luminometer (Turner Designs, Sunnyvale, Calif.).

[1] = tested on: articular chondrocytes and TC28 cells; assay: Oxygen consumption with a Clark electrode (respiratory rate); type: cell-based, human; conditions: SIN-1 500 μM; NOC-12 250 μM; antimycin A and oligomycin concentration not stated
[2] = tested on: articular chondrocytes and TC28 cells; assay: Cell viability by trypan blue dye exclusion; type: cell-based, human; conditions: 0.025 mM antimycin A or 0.02 μM oligomycin, 72 hours
Procedure: Nonlethal but mitochondrial effective doses of antimycin A were determined as follows. Progressively higher concentrations of antimycin A (Sigma Chemical Co., St. Louis, Mo.) were added to cultured articular condrocytes and TC-28 cells. Cell proliferation was measured by incorporation of fluorogenic H33258 (Calbiochem, La Jolla, Calif.) essentially according to the manufacturer's instructions, and cell viability was assessed by trypan blue dye exclusion (Medzihradsky et al., Biochem. Med. 13:164–177, 1975), essentially according to the instructions of the manufacturer (Sigma).
The objective of these studies was to find, if possible, a level of antimycin A that depressed total cellular ATP levels without causing more than 10% loss of viability. In FIG. 1A, articular chondrocytes or TC28 cells (5×10^5) in 5 ml were studied in triplicate in the presence of antimycin (or oligomycin, see next Example) at the indicated concentrations, administered every 24 hours for a total of 72 hours, and total intracellular ATP concentrations were determined as described above. […]

chondrocytes = assay: Extracellular and intracellular PPi elaboration; type: cell-based, human; conditions: for ability of TGFβ to increase extracellular and intracellular PPi: TGFβ 10 ng/ml; for basal PPi elaboration: absence of TGFβ
Procedure: One set of experiments described in this Example and presented in FIG. 4 examined the effects of agents that inhibit mitochondrial function on PPi elaboration in the absence of TGFβ. Chondrocytes (primary cultures and immortalized cell line TC-28) were prepared, cultured and treated with oligomycin (FIG. 4A), or with antimycin A (FIG. 4B), as in the preceding Examples. Extracellular PPi was determined radiometrically, and equalized for cellular DNA, according to the method of Terkeltaub et al. (Arthritis Rheum. 41:2152–2164, 1998). To determine intracellular PPi levels, washed cells were heated at 65° C. for 45 minutes, washed again and lysed in lysis buffer (1% Triton X-100, 1.6 mM MgCl2, 0.2 M Tris, pH 8.1), essentially according to the procedures described by Lotz et al. (Proc. Natl. Acad. Sci. U.S.A. 92:10364–10368, 1995).
Another set of experiments examined the ability of inhibitors of mitochondrial function to impact the ability of TGFβ to increase intracellular and extracellular PPi levels. Antimycin A- (FIG. 4B) or oligomycin-treated (FIG. 4A) chondrocytes, as well as control (untreated) cells, prepared as described in the preceding Examples, were incubated with or without TGFβ (10 ng/ml), and levels of extracellular and intracellular PPi levels were determined.

[3] = tested on: articular chondrocytes and TC28 cells; assay: Intracellular ATP, statements covering both cell preparations; type: cell-based, human; conditions: for depletion of intracellular ATP levels: 0.025 mM antimycin A or 0.02 μM oligomycin, administered every 24 hours for 72 hours; for intracellular ATP levels (qualitative): SIN-1 500 μM, NOC-12 250 μM, antimycin A and oligomycin concentration not stated; for effect on TGFβ-induced increase of intracellular ATP: antimycin A 0.025 mM or oligomycin 0.02 μM additionally present
Procedure: as §1
In FIG. 1A, articular chondrocytes or TC28 cells (5×10^5) in 5 ml were studied in triplicate in the presence of antimycin (or oligomycin, see next Example) at the indicated concentrations, administered every 24 hours for a total of 72 hours, and total intracellular ATP concentrations were determined as described above. Viability determinations are shown in FIG. 1B, where 2×10^4 chondrocytes or TC28 cells in 0.2 ml were cultured in triplicate in the presence of antimycin (or oligomycin) at the indicated concentrations, administered every 24 hours for a total of 72 hours, and cell viability was determined by trypan blue dye exclusion (>200 cells counted for each replicate).

[4] = tested on: TC28 cells or articular chondrocytes expressing NTPPPH PC-1; assay: PPi elaboration by PC-1 transfectants; type: cell-based; conditions: in the presence of antimycin A or oligomycin
Procedure: In related experiments, the effects on PPi elaboration by PC-1 transfectants of either oligomycin or antimycin A, alone or in combination with TGFβ, were determined (FIG. 4). Briefly, transient transfections were performed on 5×10^5 TC28 cells in a 35 mm tissue culture dish using Lipofectamine Plus™ (Life Technologies, Grand Island, N.Y.). Empty plasmid DNA (2 μg) or wild-type human PC-1-encoding DNA in plasmid pcDNA3.1 (2 μg) (Johnson et al., 1999 Arth. Rheum. 42:1986; Terkeltaub et al., 1994 Arthritis Rheum. 37:934–41) was added to the lipid reagent following a complex formation of the DNA to the “Plus” reagent according to the supplier's instructions, and then incubated with cells for 3 hours at 37° C. in DMEM/Fi2 medium containing 1% FCS. Cells were then washed with phosphate buffered saline (PBS), returned to complete culture medium and incubated an additional 72 hours. […] For adenoviral gene transfer, the protocol of Johnson et al. was followed (1999 Arth. Rheum. 42:1986) using articular chondrocytes which, unlike TC28 cells, cannot be efficiently transfected with plasmid DNA. […] In sum, mitochondrial function, particularly oxidative phosphorylation, appeared to provide ATP that was critical for extracellular matrix synthesis and PPi elaboration in chondrocytes.

alkaline phosphatase = assay: PPi-degrading alkaline phosphatase activity (control study); type: cell-based; conditions: not shown

Compound | ATP (pmoles/μg DNA):TC28 cells (TC28 cells) [pmoles/μg DNA] | respiratory rates [1] | loss of viability [2] | ability of TGFβ to increase extracellular and intracellular PPi (chondrocytes) | basal PPi elaboration (chondrocytes) | depletion of intracellular ATP levels [3] | intracellular ATP levels (qualitative) [3] | effect on TGFβ-induced increase of intracellular ATP [3] | intracellular and extracellular PPi levels in NTPPPH PC-1 transfectants [4] | PPi-degrading alkaline phosphatase activity (alkaline phosphatase)
CC[C@H]1/C=C/C=C/C[C@@H](C)[C@H](O)[C@@](C)(O)C(=O)[C@@H](C)[C@H](O)[C@@H](C)C(=O)[C@@H](C)[C@H](O)[C@@H](C)/C=C/C(=O)O[C@@H]2[C@H](C)[C@H](CC1)O[C@]1(CC[C@H](C)[C@H](C[C@@H](C)O)O1)[C@H]2C [oligomycin] | 198.6 ± 3.7 | inhibited respiratory rates | less than 10% | abrogated the ability of TGFβ to increase extracellular and intracellular PPi | attenuated basal PPi elaboration | 50–80% | depressed intracellular ATP levels | this effect was blocked | unable to increase intracellular and extracellular PPi levels | neither agent altered PPi-degrading alkaline phosphatase activity
antimycin A | 69.78 ± 4.0 | inhibited respiratory rates | less than 10% | abrogated the ability of TGFβ to increase extracellular and intracellular PPi | attenuated basal PPi elaboration | 50–80% | depressed intracellular ATP levels | this effect was blocked | unable to increase intracellular and extracellular PPi levels | neither agent altered PPi-degrading alkaline phosphatase activity
